Test results published in ChEMBL document CHEMBL4507285, “Data for DCP probe MRL-SYKi” (2021).
The source made the active and inactive calls. The rule behind the calls is not given here.

Legend:
[1] = target: Rhodopsin kinase GRK7 (Homo sapiens) (UniProt Q8WTQ7); conditions: Compound concentration 100.0 nM
[2] = target: Serine/threonine-protein kinase PLK2 (Homo sapiens) (UniProt Q9NYY3); conditions: Compound concentration 100.0 nM
[3] = target: cAMP-dependent protein kinase catalytic subunit beta (Homo sapiens) (UniProt P22694); conditions: Compound concentration 100.0 nM
[4] = target: Receptor-type tyrosine-protein kinase FLT3 (Homo sapiens) (UniProt P36888); conditions: Compound concentration 100.0 nM
[5] = GPCRScan assay: inhibition of GABA/PBR; parameters: species or system Rattus norvegicus; radioligand conc. used [nm] 0.3 – 2.0, parental cells brain tissue
[6] = system: Serine/threonine-protein kinase B-raf (Homo sapiens), P15056 [V600E]; conditions: Compound concentration 100.0 nM
Serine/threonine-protein kinase B-raf (Homo sapiens), P15056 [V600E], sequence (P15056 whole entry V600E, the tested form may be a part): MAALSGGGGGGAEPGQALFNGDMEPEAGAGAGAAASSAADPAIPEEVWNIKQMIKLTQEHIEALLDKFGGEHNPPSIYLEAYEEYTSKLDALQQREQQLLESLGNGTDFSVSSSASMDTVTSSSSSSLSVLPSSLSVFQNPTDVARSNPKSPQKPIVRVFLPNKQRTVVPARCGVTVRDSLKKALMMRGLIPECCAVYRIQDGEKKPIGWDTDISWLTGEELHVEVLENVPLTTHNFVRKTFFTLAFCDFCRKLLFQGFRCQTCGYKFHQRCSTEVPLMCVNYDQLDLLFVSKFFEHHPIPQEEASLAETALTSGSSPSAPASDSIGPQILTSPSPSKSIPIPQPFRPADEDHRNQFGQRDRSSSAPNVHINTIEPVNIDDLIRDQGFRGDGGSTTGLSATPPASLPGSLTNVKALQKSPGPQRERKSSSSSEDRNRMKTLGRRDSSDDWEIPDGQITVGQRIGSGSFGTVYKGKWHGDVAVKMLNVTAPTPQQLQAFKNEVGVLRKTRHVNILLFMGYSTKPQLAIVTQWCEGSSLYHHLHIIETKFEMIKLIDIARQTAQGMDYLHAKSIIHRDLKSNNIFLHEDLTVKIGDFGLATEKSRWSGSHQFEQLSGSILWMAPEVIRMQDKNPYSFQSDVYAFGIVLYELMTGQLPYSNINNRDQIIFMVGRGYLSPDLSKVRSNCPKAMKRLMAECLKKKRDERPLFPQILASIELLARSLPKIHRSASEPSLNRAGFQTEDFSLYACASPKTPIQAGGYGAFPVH

LIM domain kinase 1 = LIM domain kinase 1 (Homo sapiens, UniProt P53667); experiment: Inhibition of LIMK1 at compound concentration of 10.0 uM using the ScanMax (DiscoverX)
[7] = target: Muscarinic acetylcholine receptor M1 (Homo sapiens) (UniProt P11229); conditions: Compound concentration 10.0 uM
[8] = target: Calcium/calmodulin-dependent protein kinase type 1G (Homo sapiens) (UniProt Q96NX5); conditions: Compound concentration 100.0 nM
Calcium/calmodulin-dependent protein kinase type 1G (Homo sapiens), sequence (Q96NX5 whole entry): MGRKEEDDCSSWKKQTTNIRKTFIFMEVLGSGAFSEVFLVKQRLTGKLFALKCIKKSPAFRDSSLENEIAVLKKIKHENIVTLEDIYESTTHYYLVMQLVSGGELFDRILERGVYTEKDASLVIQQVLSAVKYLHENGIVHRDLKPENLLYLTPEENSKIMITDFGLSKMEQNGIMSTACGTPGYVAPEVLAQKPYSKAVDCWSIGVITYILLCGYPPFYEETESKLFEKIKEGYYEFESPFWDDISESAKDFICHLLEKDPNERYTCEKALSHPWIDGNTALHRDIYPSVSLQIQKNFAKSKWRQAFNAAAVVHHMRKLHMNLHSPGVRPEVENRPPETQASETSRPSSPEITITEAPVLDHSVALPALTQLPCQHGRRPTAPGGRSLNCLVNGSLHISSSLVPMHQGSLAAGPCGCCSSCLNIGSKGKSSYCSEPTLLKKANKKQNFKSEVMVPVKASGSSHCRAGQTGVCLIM

[9] = system: Tyrosine-protein kinase ABL1 (Homo sapiens), P00519 [Q252H]; conditions: Compound concentration 100.0 nM
[10] = target: Hormonally up-regulated neu tumor-associated kinase (Homo sapiens) (UniProt P57058); conditions: Compound concentration 100.0 nM
Hormonally up-regulated neu tumor-associated kinase (Homo sapiens), sequence (P57058 whole entry): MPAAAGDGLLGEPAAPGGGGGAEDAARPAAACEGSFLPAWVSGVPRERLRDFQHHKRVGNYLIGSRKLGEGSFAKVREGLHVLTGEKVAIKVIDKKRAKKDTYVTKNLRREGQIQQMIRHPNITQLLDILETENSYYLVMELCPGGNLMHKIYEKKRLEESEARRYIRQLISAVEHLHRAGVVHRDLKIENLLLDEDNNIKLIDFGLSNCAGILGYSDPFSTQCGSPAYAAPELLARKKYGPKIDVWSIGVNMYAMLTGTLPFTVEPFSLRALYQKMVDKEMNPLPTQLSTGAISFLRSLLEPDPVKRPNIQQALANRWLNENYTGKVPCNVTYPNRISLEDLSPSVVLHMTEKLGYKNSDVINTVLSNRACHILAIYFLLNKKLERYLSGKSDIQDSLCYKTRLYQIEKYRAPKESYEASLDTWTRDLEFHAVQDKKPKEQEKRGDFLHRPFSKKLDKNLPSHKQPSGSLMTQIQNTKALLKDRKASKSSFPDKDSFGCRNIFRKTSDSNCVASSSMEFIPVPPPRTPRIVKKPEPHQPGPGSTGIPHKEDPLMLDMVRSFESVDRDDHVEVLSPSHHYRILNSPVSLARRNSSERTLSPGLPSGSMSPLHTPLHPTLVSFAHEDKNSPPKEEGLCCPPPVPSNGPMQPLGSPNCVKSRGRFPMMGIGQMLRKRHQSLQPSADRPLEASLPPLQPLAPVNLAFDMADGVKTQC

[11] = target: Dual specificity protein kinase CLK4 (Homo sapiens) (UniProt Q9HAZ1); conditions: Compound concentration 100.0 nM
[12] = target: 5-hydroxytryptamine receptor 6 (Homo sapiens) (UniProt P50406); conditions: Compound concentration 10.0 uM
[13] = target: Kappa-type opioid receptor (Homo sapiens) (UniProt P41145); conditions: Compound concentration 10.0 uM
Kappa-type opioid receptor (Homo sapiens), sequence (P41145 whole entry): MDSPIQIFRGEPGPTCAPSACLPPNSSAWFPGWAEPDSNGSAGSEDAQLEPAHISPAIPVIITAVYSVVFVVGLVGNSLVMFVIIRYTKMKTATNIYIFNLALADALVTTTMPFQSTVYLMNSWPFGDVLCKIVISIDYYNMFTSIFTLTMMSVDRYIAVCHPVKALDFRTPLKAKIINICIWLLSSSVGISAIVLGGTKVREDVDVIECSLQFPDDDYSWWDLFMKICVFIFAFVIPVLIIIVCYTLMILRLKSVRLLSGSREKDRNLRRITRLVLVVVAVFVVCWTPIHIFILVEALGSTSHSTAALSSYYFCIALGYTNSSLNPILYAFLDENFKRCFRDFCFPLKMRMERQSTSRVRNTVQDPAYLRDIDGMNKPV

[14] = target: Bone morphogenetic protein receptor type-1A (Homo sapiens) (UniProt P36894); conditions: Compound concentration 100.0 nM
[15] = target: 5-hydroxytryptamine receptor 2B (Homo sapiens, UniProt P41595); experiment: GPCRScan assay: inhibition of 5-HT2B; parameters: radioligand conc. used [nm] 1.0 – 2.0, parental cells stable HEK
[16] = target: Serine/threonine-protein kinase RIO1 (Homo sapiens) (UniProt Q9BRS2); conditions: Compound concentration 100.0 nM
Serine/threonine-protein kinase RIO1 (Homo sapiens), sequence (Q9BRS2 whole entry, canonical isoform): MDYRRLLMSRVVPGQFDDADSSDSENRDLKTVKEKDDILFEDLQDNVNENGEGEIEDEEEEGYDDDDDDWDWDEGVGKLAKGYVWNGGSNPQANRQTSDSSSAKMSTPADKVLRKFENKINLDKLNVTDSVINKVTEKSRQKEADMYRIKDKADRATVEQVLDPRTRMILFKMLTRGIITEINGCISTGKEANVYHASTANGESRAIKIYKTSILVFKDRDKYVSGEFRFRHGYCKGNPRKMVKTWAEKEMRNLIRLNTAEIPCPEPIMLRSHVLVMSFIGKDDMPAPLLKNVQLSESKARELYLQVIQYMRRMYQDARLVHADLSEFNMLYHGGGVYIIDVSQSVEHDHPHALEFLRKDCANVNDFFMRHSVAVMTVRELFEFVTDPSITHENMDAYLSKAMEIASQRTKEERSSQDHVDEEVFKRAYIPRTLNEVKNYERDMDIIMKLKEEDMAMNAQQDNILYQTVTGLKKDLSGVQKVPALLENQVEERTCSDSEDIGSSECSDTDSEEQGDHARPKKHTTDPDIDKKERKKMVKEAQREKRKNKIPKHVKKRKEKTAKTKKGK

[17] = target: Phosphatidylinositol 4,5-bisphosphate 3-kinase catalytic subunit delta isoform (Homo sapiens) (UniProt O00329); conditions: Compound concentration 100.0 nM
[18] = target: Leukocyte tyrosine kinase receptor (Homo sapiens) (UniProt P29376); conditions: Compound concentration 100.0 nM
Leukocyte tyrosine kinase receptor (Homo sapiens), sequence (P29376 whole entry): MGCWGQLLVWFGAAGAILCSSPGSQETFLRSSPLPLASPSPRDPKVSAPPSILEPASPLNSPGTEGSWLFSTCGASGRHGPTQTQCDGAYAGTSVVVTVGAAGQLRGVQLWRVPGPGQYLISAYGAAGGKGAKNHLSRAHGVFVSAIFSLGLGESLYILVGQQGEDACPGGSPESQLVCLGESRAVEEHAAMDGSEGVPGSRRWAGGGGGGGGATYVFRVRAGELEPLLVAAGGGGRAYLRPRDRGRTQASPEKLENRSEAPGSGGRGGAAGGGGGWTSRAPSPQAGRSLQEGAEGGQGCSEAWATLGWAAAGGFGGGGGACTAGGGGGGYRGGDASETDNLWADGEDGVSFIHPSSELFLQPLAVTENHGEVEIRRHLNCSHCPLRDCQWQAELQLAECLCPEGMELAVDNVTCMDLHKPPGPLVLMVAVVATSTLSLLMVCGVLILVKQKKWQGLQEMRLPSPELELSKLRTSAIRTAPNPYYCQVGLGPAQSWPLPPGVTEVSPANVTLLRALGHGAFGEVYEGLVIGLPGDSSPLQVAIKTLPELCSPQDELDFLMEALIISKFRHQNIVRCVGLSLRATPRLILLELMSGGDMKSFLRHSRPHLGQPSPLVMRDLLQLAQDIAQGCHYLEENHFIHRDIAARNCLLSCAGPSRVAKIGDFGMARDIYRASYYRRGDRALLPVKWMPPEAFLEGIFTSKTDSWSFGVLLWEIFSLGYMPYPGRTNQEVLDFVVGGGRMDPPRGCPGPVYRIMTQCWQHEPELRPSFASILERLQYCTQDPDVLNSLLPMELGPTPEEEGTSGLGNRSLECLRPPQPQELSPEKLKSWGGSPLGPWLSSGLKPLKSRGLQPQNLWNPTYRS

[19] = target: Sodium-dependent noradrenaline transporter (Homo sapiens, UniProt P23975); experiment: GPCRScan assay: inhibition of NET; parameters: radioligand conc. used [nm] 1.3 – 5.0, parental cells stable HEK
[20] = target: Tyrosine-protein kinase ZAP-70 (Homo sapiens, UniProt P43403); experiment: Invitrogen kinase assay (ZAP70)
[21] = target: Tyrosine-protein kinase JAK2 (Homo sapiens, UniProt O60674); experiment: Invitrogen kinase assay (JAK2)
[22] = target: Proto-oncogene tyrosine-protein kinase Src (Homo sapiens, UniProt P12931); experiment: Invitrogen kinase assay (SRC)
[23] = target: Tyrosine-protein kinase Fer (Homo sapiens, UniProt P16591); experiment: Invitrogen kinase assay (FER)
[24] = target: Tyrosine-protein kinase Fyn (Homo sapiens, UniProt P06241); experiment: Invitrogen kinase assay (FYN)
[25] = target: NT-3 growth factor receptor (Homo sapiens, UniProt Q16288); experiment: Invitrogen kinase assay (NTRK3)
[26] = target: Tyrosine-protein kinase Fgr (Homo sapiens, UniProt P09769); experiment: Invitrogen kinase assay (FGR)
[27] = target: 5-hydroxytryptamine receptor 1E (Homo sapiens) (UniProt P28566); conditions: Compound concentration 10.0 uM
[28] = target: Tyrosine-protein kinase SYK (Homo sapiens, UniProt P43405); experiment: Inhibition of SYK at compound concentration of 10.0 uM using the ScanMax (DiscoverX)
[29] = target: High affinity nerve growth factor receptor (Homo sapiens, UniProt P04629); experiment: Invitrogen kinase assay (NTRK1)

Rhodopsin kinase GRK7 (Homo sapiens), sequence (Q8WTQ7 whole entry): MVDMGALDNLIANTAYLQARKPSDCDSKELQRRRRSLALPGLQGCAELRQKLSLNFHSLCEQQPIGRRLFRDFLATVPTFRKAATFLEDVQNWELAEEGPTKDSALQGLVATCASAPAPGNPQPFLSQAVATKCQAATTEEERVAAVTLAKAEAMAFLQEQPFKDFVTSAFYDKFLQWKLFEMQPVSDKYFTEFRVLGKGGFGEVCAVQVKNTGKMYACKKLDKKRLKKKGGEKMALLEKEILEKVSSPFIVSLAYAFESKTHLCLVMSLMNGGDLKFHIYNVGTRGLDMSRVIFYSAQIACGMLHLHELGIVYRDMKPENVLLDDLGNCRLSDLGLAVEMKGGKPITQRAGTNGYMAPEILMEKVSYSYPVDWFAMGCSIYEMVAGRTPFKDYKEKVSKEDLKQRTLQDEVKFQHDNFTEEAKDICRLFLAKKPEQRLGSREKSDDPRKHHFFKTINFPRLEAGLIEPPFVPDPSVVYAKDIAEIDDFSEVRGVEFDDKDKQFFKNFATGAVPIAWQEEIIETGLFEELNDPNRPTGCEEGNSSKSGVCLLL
Serine/threonine-protein kinase PLK2 (Homo sapiens), sequence (Q9NYY3 whole entry, looked up): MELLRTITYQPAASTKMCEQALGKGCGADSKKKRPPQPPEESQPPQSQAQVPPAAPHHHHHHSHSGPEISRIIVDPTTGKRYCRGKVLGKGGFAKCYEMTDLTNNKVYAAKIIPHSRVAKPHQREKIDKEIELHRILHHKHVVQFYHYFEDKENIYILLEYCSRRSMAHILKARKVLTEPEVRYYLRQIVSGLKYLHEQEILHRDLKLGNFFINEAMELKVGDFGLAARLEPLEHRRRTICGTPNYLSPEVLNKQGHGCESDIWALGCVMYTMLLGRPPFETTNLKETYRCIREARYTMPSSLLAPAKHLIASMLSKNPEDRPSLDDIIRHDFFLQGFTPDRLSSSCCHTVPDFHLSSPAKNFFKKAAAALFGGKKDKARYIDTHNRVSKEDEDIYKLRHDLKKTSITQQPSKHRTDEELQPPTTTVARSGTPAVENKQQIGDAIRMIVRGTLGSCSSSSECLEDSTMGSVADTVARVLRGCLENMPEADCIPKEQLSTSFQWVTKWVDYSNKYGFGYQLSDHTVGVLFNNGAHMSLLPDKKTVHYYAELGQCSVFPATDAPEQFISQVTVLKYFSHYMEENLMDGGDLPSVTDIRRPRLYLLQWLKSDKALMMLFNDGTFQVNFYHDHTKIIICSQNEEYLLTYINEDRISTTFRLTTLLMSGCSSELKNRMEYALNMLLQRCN

Row | SMILES | residual activity [1] [%] | residual activity [2] [%] | residual activity [3] [%] | residual activity [4] [%] | residual activity [6] [%] | residual activity [8] [%] | residual activity [9] [%] | residual activity [10] [%] | residual activity [11] [%] | inhibition [13] [%] | residual activity [14] [%] | residual activity [16] [%] | residual activity [17] [%] | residual activity [18] [%] | other results
1 | Cc1ccc(-c2cnc([C@@]3(O)CC[C@H](C(=O)O)C(C)(C)C3)s2)cc1Nc1cccc(C(F)(F)F)n1 [MRL-SYKi-NC] | 75.4 | 100 | 71.5 | 100 | 100 | 90.7 | 82.2 | 96.2 | 65.2 | -5.83 | 100 | 100 | 98.8 | 75.8 | Ki [5]: 774 nM; pKi [5]: 6.11; Kd (LIM domain kinase 1): > 10 µM (not active); inhibition [7]: -6.43%; inhibition [12]: 6.66%; Ki [15]: 1060 nM
2 | Cc1cc(Nc2nccc(C)n2)cc(-c2cnc([C@@]3(O)CC[C@H](C(=O)O)C(C)(C)C3)s2)c1 [MRL-SYKi] | 100 | 100 | 100 | 100 | 100 | 100 | 32.4 | 100 | 90.9 | 30.6 | 90.5 | 100 | 100 | 100 | Ki [19]: 7.71 µM; IC50 [20]: 24 nM (active); IC50 [21]: 242 nM (not active); IC50 [22]: 100 nM (not active); IC50 [23]: 232 nM (not active); IC50 [24]: 205 nM (not active); IC50 [25]: 120 nM (not active); IC50 [26]: 185 nM (not active); inhibition [27]: 11.4%; Kd [28]: 1.8 nM (active); IC50 [29]: 105 nM (not active)
